Data from US20240101958A1, “NOVEL HUMAN ERYTHROID PROGENITOR CELL LINE HIGHLY […] B19 INFECTION AND USES THEREOF” (priority 2020, published 2024).

Legend:
B19 = assay: Production of B19 genome copies equivalent per mL of cell culture, qPCR; format: cell-based, Human Parvovirus B19; conditions: UT7/Epo-E2 cell line after chloroquine treatment, 96 h post infection
Protocol: Cells (day 8 CD36^+EPC, UT7/Epo-S1, UT7/Epo-STI and UT7/Epo-E2) were inoculated with B19. 24 h after inoculation (24 hpi), cells were washed. 3 days later (96 hpi), supernatant was collected, DNA was isolated and B19 DNA was quantified by qPCR according to a B19 DNA standard (GenBank accession no. AY386330). Results are means±SD of 3 independent experiments. For CD36+ EPC, results are means±SD of three day-8 erythroid culture from CD34+ hematopoietic stem cells isolated from 3 different umbilical cord blood.
B19 genome production (FIG. 12) and transcription (FIG. 13) was evaluated at 96h post infection in CD36+EPC cells (day 8) and UT7 cell lines with or without addition of chloroquine (FIG. 13A and B). 96 h post infection, DNA was extracted from an aliquot of 1 mL of cell culture and RNA from cell pellets. B19 genome production was evaluated by qPCR and genome equivalent (GEq)/mL was calculated according to a B19 genome calibration curve. Transcription was analysed by RT-qPCR as previously described. […] UT7/Epo-E2 cell line presents the highest quantity of B19 genome equivalent produced, with at least 7.65×10^7 GEq/mL after chloroquine treatment. […]

B19V = B19V infection of hematopoietic cell lines, VP2 mRNA by RT-qPCR normalized to beta-actin; conditions: for decrease of B19V infection by a factor: UT7/Epo-STI cells treated two days before B19V infection (JQ1 0.5 μM, TGF-β 2 ng/mL), 72 h post-inoculation
Protocol: Three distinct UT-7/Epo cell lines were used: 1) UT-7/Epo-S1, a subclone of UT-7/Epo (16), was obtained from Dr Kazuo Sugamura (Tohoku University Graduate School of Medicine, Japan). 2) UT-7/Epo and UT7/Epo-Cl3, a subclone isolated from UT-7/Epo3) UT7/Epo-STI cells were derived from UT-7/GM cell line and were maintained at low passage, with stringency for erythroid features. UT-7 cells were maintained at 37° C., under an atmosphere containing 5% CO2, in alpha minimum essential medium (αMEM) supplemented with 10% fetal calf serum (FCS), 2 mM L-glutamine (Hyclone), 100 U/mL penicillin, 100 μg/mL streptomycin and 2 U/mL recombinant human Erythropoietin (rh-Epo, Euromedex, RC213-15). Where specified, 0.5 μM JQ1 (Sigma-Aldrich, France) or 2 ng/mL TGF-β (Peprotech, France) was added to the culture medium for two days before B19V infection. TF1 (12) and TF1-ER erythroleukemia cells were maintained in Roswell Park Memorial Institute (RPM!) 1640 medium supplemented with 10% FCS, 2 mM L-glutamine (Hyclone), 100 U/mL penicillin, 100 μg/mL streptomycin and 2 U/mL rh-Epo or 5 ng/mL human granulocyte macrophage colony-stimulating factor (GM-CSF, Peprotech).
Plasma samples containing high titers of infectious B19V from asymptomatic blood donors were provided by the Etablissement Français du Sang (EFS). Plasma samples were determined to be negative for both B19V IgG and IgM, with a viral titer of 10^11 B19V DNA genome equivalent (ge)/mL. Briefly, cells were maintained in exponential growth condition by dilution to 0.3×10^6 cells/mL the day before infection. On the day of infection, cells were washed and diluted in FCS-free medium without Epo, at a density of 10·10^6 cells/mL. B19V inoculation was carried out in a 96-well plate, with 10 μL of cell suspension (10^5 cells) and 50 μL of a 100-fold dilution of B19V plasma (10^9 ge/mL), corresponding to a mean of 500 ge/cell. The cells were then incubated at 4° C. for 2 h, and then at 37° C., for 1 h, under an atmosphere containing 5% CO2. We added 140 μL of complete medium and maintained the cells in culture until 72 h. Where specified, we added chloroquine (CQ) to the complete medium, at a final concentration of 25 μM. Cell viability was assessed by trypan blue exclusion test (0.4% in PBS, Thermo Fisher Scientific), by counting blue and total cells under a microscope, with a hemocytometer. After correction for the dilution factor, viability was calculated as follows: % viable cells=[1−(number of blue cells/number of total cell)]×100. At 24, 48 or 72 h post infection (hpi), cells were centrifuged (8 mins at 300×g), supernatants were discarded and cell pellets were frozen at −80° C. until analysis.
Total RNA was extracted from cell pellets with the RNeasy 96 QIAcubeHT kit and a QIAcubeHT machine, according to the manufacturer's instructions. The extraction step included DNase treatment for 15 minutes, to decrease the risk of genomic DNA amplification during PCR. Real-time reverse transcription-quantitative PCR (RT-qPCR) was performed with the Taqman Fast Virus one-step PCR kit (Applied Biosystems). […] For control and normalization with respect to the number of cells, we used a duplex strategy. […] Reactions were performed on 5 μL of extracted RNA with the QuantStudio 3 PCR system and. The reaction began with reverse transcription at 48° C. for 15 mins, followed by inactivation of the reverse transcriptase and activation of the polymerase by heating at 95° C. for 10 mins, followed by 40 cycles of 15s at 95° C. and 30 s at 60° C. […]

Row | Molecule | quantity of B19 genome equivalent produced (B19) | VP2 expression (B19V; TF1 and TF1-ER cells, under GM-CSF or Epo, with or without chloroquine treatment) | enhancement of UT7/Epo-S1 sensitivity to B19V (relative B19 mRNA expression) (B19V; UT7/Epo-S1 cells, chloroquine 25 μM, 72 h post-infection) | relative B19 mRNA level (VP2), UT7/Epo-S1 without chloroquine set to 1 (B19V; UT7/Epo-STI cells + chloroquine 25 μM, 72 h post-infection) | decrease of B19V infection by a factor (B19V)
1 | CCN(CC)CCCC(C)Nc1ccnc2cc(Cl)ccc12 (racemic) [Chloroquine, (RS)-N-(7-chloroquinolin-4-yl)-N,N-diéthyl-pentane-1,4-diamine] | at least 7.65×10^7 GEq/mL | undetectable | 5 fold | 25.8+4.9 | –
2 | Cc1sc2c(c1C)C(c1ccc(Cl)cc1)=N[C@@H](CC(=O)OC(C)(C)C)c1nnc(C)n1-2 [JQ1] | – | – | – | – | about 10
3 | TGF-B: hormonal induction of erythroid differentiation (Peprotech) | – | – | – | – | about 10
